Results: patent US20220356170A1, “SREBP INHIBITOR COMPRISING A THIOPHENE CENTRAL RING” (Capulus Therapeutics, LLC, priority 2019, published 2022)

Columns and labels:
[1] = In vitro % Fu, human plasma; assay type: in vitro ADME; settings: read-out: In Vitro % Fu (Hu Plasma)
[2] = In vitro % Fu, mouse plasma; assay type: in vitro ADME; settings: read-out: In Vitro % Fu (Mo Plasma)
22RV1 = experiment: Cancer cell growth inhibition, Sulforhodamine B; assay type: cell-based; settings: Homo sapiens; 22RV1 (prostate), 72 hr; Responder Cell Lines
In short: (§1)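 Cells were treated for 72 hr in growth media with compounds from six 10-fold DMSO stock dilutions (10 mM to 0.1 uM stocks), final DMSO 0.1%, single data point per concentration. Growth was measured by Sulforhodamine B protein staining, and IC50, GI50, IC10, TGI, LC50, IC90 and GI90 were derived where calculable.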

COLO205 = experiment: Cancer cell growth inhibition, Sulforhodamine B; assay type: cell-based; settings: Homo sapiens, COLO 205; COLO205 (colon), 72 hr; Responder Cell Lines
In short: as §1

DLD1 = experiment: Cancer cell growth inhibition, Sulforhodamine B; assay type: cell-based; settings: Homo sapiens, DLD-1; DLD1 (colon), 72 hr; Non-Responder Cell Lines with IC50 >10 uM or Not Determined
In short: as §1

EFO21 = experiment: Cancer cell growth inhibition, Sulforhodamine B; assay type: cell-based; settings: Homo sapiens, EFO-21; EFO21 (ovary), 72 hr; Responder Cell Lines
In short: as §1

HCT116 = experiment: Cancer cell growth inhibition, Sulforhodamine B; assay type: cell-based; settings: Homo sapiens, HCT-116; HCT116 (colon), 72 hr; Responder Cell Lines
In short: as §1

HEK293 = experiment: Cancer cell growth inhibition, Sulforhodamine B; assay type: cell-based; settings: Homo sapiens; HEK293 (kidney), 72 hr; Responder Cell Lines
In short: as §1

KASUMI-1 = experiment: Cancer cell growth inhibition, Sulforhodamine B; assay type: cell-based; settings: Homo sapiens; KASUMI-1 (hematological), 72 hr; Non-Responder Cell Lines with IC50 >10 uM or Not Determined
In short: as §1

MG63 = experiment: Cancer cell growth inhibition, Sulforhodamine B; assay type: cell-based; settings: Homo sapiens, MG-63; MG63 (bone), 72 hr; Non-Responder Cell Lines with IC50 >10 uM or Not Determined
In short: as §1

MHHES1 = experiment: Cancer cell growth inhibition, Sulforhodamine B; assay type: cell-based; settings: Homo sapiens, MHH-ES-1, 72 h
In short: as §1

MINO = experiment: Cancer cell growth inhibition, Sulforhodamine B; assay type: cell-based; settings: Homo sapiens, 72 h, MINO (hematological)
In short: as §1

PANC1005 = experiment: Cancer cell growth inhibition, Sulforhodamine B; assay type: cell-based; settings: Homo sapiens, Panc1005, 72 h, PANC1005 (pancreas)
In short: as §1

PBMC = experiment: Cancer cell growth inhibition, Sulforhodamine B; assay type: cell-based; settings: PBMC (hematological), 72 hr; Non-Responder Cell Lines with IC50 >10 uM or Not Determined
In short: as §1

SF268 = experiment: Cancer cell growth inhibition, Sulforhodamine B; assay type: cell-based; settings: Homo sapiens, SF-268; SF268 (brain), 72 hr; Non-Responder Cell Lines with IC50 >10 uM or Not Determined
In short: as §1

SF295 = experiment: Cancer cell growth inhibition, Sulforhodamine B; assay type: cell-based; settings: Homo sapiens, SF-295, 72 h, SF295 (brain)
In short: as §1

SKBR3 = experiment: Cancer cell growth inhibition, Sulforhodamine B; assay type: cell-based; settings: Homo sapiens, SK-BR-3, 72 h, SKBR3 (breast)
In short: as §1

SKHEP1 = experiment: Cancer cell growth inhibition, Sulforhodamine B; assay type: cell-based; settings: Homo sapiens, SK-HEP1, 72 h, SKHEP1 (liver)
In short: as §1

SKMEL5 = experiment: Cancer cell growth inhibition, Sulforhodamine B; assay type: cell-based; settings: Homo sapiens, SK-MEL-5, 72 h, SKMEL5 (skin)
In short: as §1

SKNAS = experiment: Cancer cell growth inhibition, Sulforhodamine B; assay type: cell-based; settings: Homo sapiens, SK-N-AS; SKNAS (brain), 72 hr; Non-Responder Cell Lines with IC50 >10 uM or Not Determined
In short: as §1

SKOV3 = experiment: Cancer cell growth inhibition, Sulforhodamine B; assay type: cell-based; settings: Homo sapiens, SK-OV-3; SKOV3 (ovary), 72 hr; Non-Responder Cell Lines with IC50 >10 uM or Not Determined
In short: as §1

SW620 = experiment: Cancer cell growth inhibition, Sulforhodamine B; assay type: cell-based; settings: Homo sapiens, SW-620; SW620 (colon), 72 hr; Non-Responder Cell Lines with IC50 >10 uM or Not Determined
In short: as §1

TE671 = experiment: Cancer cell growth inhibition, Sulforhodamine B; assay type: cell-based; settings: Homo sapiens, TE-671, 72 h, TE671 (muscle)
In short: as §1

[3] = Non-Responder Cell Lines with IC50 >10 uM or Not Determined

Work on `CC(C)(O)c1cc(-c2csc(-c3ccc(C(=O)N4CCC(O)CC4)cc3Cl)c2)ccn1` [Compound 1, (3-chloro-4-(4-(2-(2-hydroxypropan-2-yl)pyridin-4-yl)thiophen-2-yl)phenyl)(4-hydroxypiperidin-1-yl)methanone] yielded a fraction unbound [1] of 0.026, a fraction unbound [2] of 0.007 and an IC50 (22RV1) of under 10 µM. The IC50 (COLO205) was under 10 µM, the IC50 (DLD1) was over 10 µM and the IC50 (EFO21) was under 10 µM. The IC50 (HCT116) was under 10 µM, the IC50 (HEK293) was under 10 µM and the IC50 (KASUMI-1) was over 10 µM. The IC50 (MG63) was over 10 µM, the IC50 (MHHES1; MHHES1 (bone), Non-Responder Cell Lines with IC50 >10 uM or Not Determined) was over 10 µM and the IC50 (MHHES1; MHHESI (bone), Responder Cell Lines) was under 10 µM. For the same compound, the IC50 (MINO; [3]) was over 10 µM, the IC50 (MINO; Responder Cell Lines) was under 10 µM and the IC50 (PANC1005; [3]) was over 10 µM. The IC50 (PANC1005; Responder Cell Lines) was under 10 µM, the IC50 (PBMC) was over 10 µM and the IC50 (SF268) was over 10 µM. The IC50 (SF295; [3]) was over 10 µM, the IC50 (SF295; Responder Cell Lines) was under 10 µM and the IC50 (SKBR3; [3]) was over 10 µM. It also gave an IC50 (SKBR3; Responder Cell Lines) of under 10 µM, an IC50 (SKHEP1; [3]) of over 10 µM and an IC50 (SKHEP1; Responder Cell Lines) of under 10 µM. It also gave an IC50 (SKMEL5; [3]) of over 10 µM, an IC50 (SKMEL5; Responder Cell Lines) of under 10 µM and an IC50 (SKNAS) of over 10 µM. The IC50 (SKOV3) was over 10 µM, the IC50 (SW620) was over 10 µM and the IC50 (TE671; [3]) was over 10 µM. It also gave an IC50 (TE671; Responder Cell Lines) of under 10 µM.
